Each structure is given as a SMILES string. Residue numbers refer to the chain shown, from its start. Like-named read-outs stand apart in the source and are kept apart here.

The target of one assay is T1, mutant MGL (Homo sapiens, UniProt Q99685, L169S/L176S).
T1 sequence (Q99685 1-303 L169S/L176S): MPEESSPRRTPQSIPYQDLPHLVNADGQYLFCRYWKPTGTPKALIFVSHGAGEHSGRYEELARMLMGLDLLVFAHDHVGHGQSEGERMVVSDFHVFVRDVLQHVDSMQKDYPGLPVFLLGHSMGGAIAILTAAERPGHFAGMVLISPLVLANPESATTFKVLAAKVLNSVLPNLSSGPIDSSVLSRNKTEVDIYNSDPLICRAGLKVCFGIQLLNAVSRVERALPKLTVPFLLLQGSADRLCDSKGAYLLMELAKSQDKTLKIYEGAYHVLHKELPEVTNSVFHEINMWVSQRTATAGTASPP
Description: MGL ThermoFluor assay - mutant. The assay is classed as binding.

Assay [1] concerns the target T2, purified wild type MGL (wt-MGLL 6H-11-313) (Homo sapiens, UniProt Q99685).
T2 sequence (Q99685 1-303): T1 sequence (Q99685 1-303 L169S/L176S) with S169L, S176L

Where [2] appears, read: ThermoFluor, compound concentration measured by qNMR, read-out: MGL mutant ThermoFluor qKd (using qNMR conc.).
Setting [3] is: ThermoFluor concentration-response, read-out: MGL mutant ThermoFluor Kd.
The mark [4] stands for this setting: ThermoFluor, compound concentration measured by qNMR, read-out: MGL mutant ThermoFluor qKd (μM) (using qNMR conc.).
Where [5] appears, read: compound concentration measured by qNMR, read-out: MGL mutant ThermoFluor qKd (using qNMR conc.).

One may read the IC50 as the midpoint of a concentration-inhibition curve. In the case of `C[C@@H]1CN(C2CN(C(=O)c3cc4ccc(C(F)(F)F)cc4s3)C2)C[C@H](C)N1C(=O)c1nccs1` [Cpd 954, (2R,6S)-2,6-Dimethyl-1-(1,3-thiazol-2-ylcarbonyl)-4-(1-{[6-(trifluoromethyl)-1-benzothiophen-2-yl]carbonyl}azetidin-3-yl)piperazine], at mutant MGL (setting [2]), the Kd stood at 3.44 µM. Moreover, in assay [1], the IC50 was found to be 2740 nM.

As for `O=C(c1ccccc1)N1CCN(C2CN(C(=O)c3ccc(Oc4ccccn4)c(Cl)c3)C2)CC1` [Cpd 525], at mutant MGL (setting [3]), the Kd was determined as 2.5 µM. The same compound displayed an IC50 in assay [1] of 6990 nM. On to `O=C(c1cn2cc(C(F)(F)F)ccc2n1)N1CC(N2CCN(C(=O)c3nccs3)CC2)C1` [Cpd 1453], for which, at mutant MGL (setting [4]), the Kd is 10 µM. Moreover, the IC50 in assay [1] was > 16700 nM. As to `O=C(c1cscn1)N1CCN(C2CN(C(=O)c3cc(-c4ccccc4)ccc3Cl)C2)CC1` [Cpd 1288], on mutant MGL (setting [3]), the Kd worked out at 2.16 µM. In addition, the half-inhibitory concentration (IC50) in assay [1] is 2510 nM.

In the case of `O=C(c1ccc(-c2ccc(C(F)(F)F)s2)cc1)N1CC(N2CCN(C(=O)c3cncs3)CC2)C1` [Cpd 1268], the Kd at mutant MGL (setting [5]) was 0.039 µM. In addition, 1220 nM corresponded to half-maximal inhibition in assay [1] (IC50). As for `O=C(c1ccc(-c2cccc(C(F)(F)F)c2)cc1)N1CC(N2CCN(C(=O)c3cnco3)CC2)C1` [Cpd 1169], the Kd at mutant MGL (setting [4]) was found to be 0.053 µM. Inhibition in assay [1] was half-maximal at 55 nM (IC50). `O=C(c1ccc(CNc2cccc(Cl)c2)cc1)N1CC(N2CCN(C(=O)C(F)(F)F)CC2)C1` [Cpd 964]: at mutant MGL (setting [5]), the Kd stood at 3.2 µM. This compound also gave an IC50 in assay [1] of 1700 nM. Take `Cc1cc(Br)ccc1C(=O)N1CC(N2CCN(C(=O)c3nccs3)CC2)C1` [Cpd 786]: at mutant MGL (setting [2]), the Kd is 0.665 µM. The compound further had an IC50 in assay [1] of 1200 nM. Regarding `O=C(c1ccc2c(ccn2CC(F)F)c1)N1CC(N2CCN(C(=O)c3cscn3)CC2)C1` [Cpd 813], the Kd at mutant MGL (setting [5]) came out at 0.499 µM. In assay [1], this compound displayed an IC50 of 2420 nM. The corresponding values for `O=C(c1ccc(OCc2cncc(Cl)c2)cc1)N1CC(N2CCN(C(=O)C(F)(F)F)CC2)C1` [Cpd 979] are 1.14 µM and 648 nM. Turning to `O=C(c1cscn1)N1CCN(C2CN(C(=O)c3cc4ccc(C(F)(F)F)cc4[nH]3)C2)CC1` [Cpd 828], on mutant MGL (setting [3]), the Kd is 2.63 µM. Moreover, the IC50 in assay [1] amounted to 3730 nM.

As for `Cc1nc2c(C)ccc(Cl)c2cc1C(=O)N1CC(N2CCN(C(=O)c3nccs3)CC2)C1` [Cpd 791], on mutant MGL (setting [2]), the Kd is 0.402 µM. The compound further displayed an IC50 in assay [1] of 1450 nM. Turning to `O=C(c1ccc(-c2ccccc2)cc1)N1CCN(C2CN(C(=O)c3csnn3)C2)CC1` [Cpd 1276, 1-(Biphenyl-4-ylcarbonyl)-4-[1-(1,2,3-thiadiazol-4-ylcarbonyl)azetidin-3-yl]piperazine], the Kd at mutant MGL (setting [3]) came to 0.807 µM. In assay [1], the IC50 was 1760 nM. On to `O=C(c1ccc(-n2cc(-c3ccc(Cl)cc3)cn2)cc1)N1CC(N2CCN(C(=O)c3nccs3)CC2)C1` [Cpd 1334], for which, on mutant MGL (setting [4]), the Kd is 0.08 µM. In addition, the IC50 in assay [1] was < 5 nM. On to `CC(C)(C)OC(=O)N1CCc2cccc(C(=O)N3CC(N4CCN(C(=O)c5cscn5)CC4)C3)c2C1` [Cpd 861], for which the Kd on mutant MGL (ThermoFluor thermal stability binding assay, read-out: MGL mutant ThermoFluor Kd) worked out at 2.63 µM. For the same compound, in assay [1], half-maximal inhibition (IC50) was put at 9220 nM. `O=C(c1ccc2c(ccn2-c2ccc(F)cc2)c1)N1CC(N2CCN(C(=O)C(F)(F)F)CC2)C1` [Cpd 1079, 1-(4-Fluorophenyl)-5-({3-[4-(trifluoroacetyl)piperazin-1-yl]azetidin-1-yl}carbonyl)-1H-indole]: the Kd on mutant MGL (setting [2]) came to 0.272 µM. The compound further displayed an IC50 in assay [1] of 9 nM. On to `O=C(c1ccc2c(c1)[nH]c(=O)n2-c1ccc(C(F)(F)F)cc1)N1CC(N2CCN(C(=O)c3nccs3)CC2)C1` [Cpd 936], for which the Kd at mutant MGL (setting [3]) stood at 0.012 µM. This compound returned an IC50 in assay [1] of 13 nM. The corresponding values for `O=C(c1ccc2c(c1)ncn2-c1ccccc1)N1CC(N2CCN(C(=O)c3nccs3)CC2)C1` [Cpd 1207] are 0.014 µM and 179 nM. On to `O=C(c1ccc2nc(-c3ccccn3)sc2c1)N1CC(N2CCN(C(=O)c3nccs3)CC2)C1` [Cpd 1165], for which, at mutant MGL (setting [4]), the Kd was determined as 0.09 µM. The compound also came in with an IC50 in assay [1] of 51 nM. The corresponding values for `O=C(c1nc2cc(-c3cccnc3F)ccc2[nH]1)N1CC(N2CCN(C(=O)c3nccs3)CC2)C1` [Cpd 1476] are 7.21 µM and > 16700 nM. For `O=C(c1ccc2[nH]c(-c3ccccc3)nc2c1)N1CCN(C2CN(C(=O)c3ccccc3)C2)CC1` [Cpd 611], the Kd at mutant MGL (setting [3]) stood at 5.15 µM. This compound also gave an IC50 in assay [1] of 13300 nM. With `O=C(c1nccs1)N1CCN(C2CN(C(=O)c3cn(Cc4ccccc4)c4ccccc34)C2)CC1` [Cpd 993], the Kd at mutant MGL (setting [3]) was determined as 0.333 µM. This compound also yielded an IC50 in assay [1] of 1510 nM.

With `N#Cc1ccc(N2CCC(C(=O)N3CC(N4CCN(C(=O)c5nccs5)CC4)C3)CC2)cc1` [Cpd 646], the Kd on mutant MGL (setting [3]) came out at 1.61 µM. In assay [1], this compound yielded an IC50 of 7160 nM. `O=C(c1ccc(Oc2cccc(F)n2)cc1)N1CC(N2CCN(C(=O)c3cscn3)CC2)C1` [Cpd 784]: at mutant MGL (setting [3]), the Kd was 2.15 µM. In assay [1], this compound gave an IC50 of 1130 nM. On to `O=C(c1cscn1)N1CC(N2CCN(C(=O)c3nc4cc(Cl)ccc4s3)CC2)C1` [Cpd 821], for which half-maximal inhibition in assay [1] (IC50) required 2850 nM. Still for that read-out and setting: the value for `O=C(c1ccccc1)N1CC(N2CCN(C(=O)c3ccc(-c4ccccc4)cc3)CC23CC3)C1` [Cpd 606] was 2040 nM; that for `Cn1cc(-c2cccc(C(F)(F)F)c2)c2ccc(C(=O)N3CC(N4CCN(C(=O)c5nccs5)CC4)C3)cc21` [Cpd 1100] was 12 nM; that for `Cc1nc2cc(C(=O)N3CC(N4CCN(C(=O)c5ccccc5)CC4)C3)ccc2n1-c1ccccc1` [Cpd 635] was 838 nM. Same read-out and setting: in the case of `O=C(c1ccc2nc(Cc3ccccc3)[nH]c2c1)N1CCN(C2CN(C(=O)c3nccs3)C2)CC1` [Cpd 1001] it was 1400 nM. Same read-out and setting: in the case of `O=C(c1ccc2c(c1)CCN(Cc1cccc(C(F)(F)F)c1)C2)N1CC(N2CCN(C(=O)c3nccs3)CC2)C1` [Cpd 879] it was < 5 nM. For the compound `Cc1ccc(-n2nc(C)c(C(=O)N3CC(N4CCN(C(=O)c5nccs5)CC4)C3)n2)cc1` [Cpd 1214], the IC50 in assay [1] was found to be 209 nM. On the same count and under the same terms, the value for `Cn1c2ccccc2c2cc(C(=O)N3CC(N4CCN(C(=O)c5cscn5)CC4)C3)ccc21` [Cpd 767] was 691 nM.

The compound `O=C(c1ccc2[nH]c(Cc3ccccc3)nc2c1)N1CC(N2CCN(C(=O)c3nccs3)CC2)C1` [Cpd 1004] came in with an IC50 in assay [1] of 167 nM.

`Cc1cc(-c2cccc(C(F)(F)F)c2)ccc1C(=O)N1CCN(C2CN(C(=O)c3cscn3)C2)CC1` [Cpd 1212] registered an IC50 in assay [1] of 204 nM. The IC50 values of the last two compounds are within 1.5-fold of each other. In assay [1], `O=C(c1ccc(Oc2cc(C(F)(F)F)ccn2)cc1)N1CC(N2CCN(C(=O)c3nccs3)CC2)C1` [Cpd 652] returned an IC50 of 7 nM.

For the compound `Cc1c(C(=O)N2CC(N3CCN(C(=O)c4cscn4)CC3)C2)oc2c(F)cccc12` [Cpd 871], in assay [1], half-maximal inhibition (IC50) was put at 13300 nM.

`Cn1cc(-c2cccc(C(F)(F)F)c2)c2ccc(C(=O)N3CC(N4CCN(C(=O)c5cscn5)CC4)C3)cc21` [Cpd 1084] gave an IC50 in assay [1] of 9 nM. Same read-out and setting: the value for `O=C(c1cscn1)N1CCN(C2CN(C(=O)c3nc4cc(Cl)ccc4s3)C2)CC1` [Cpd 855] was 8440 nM; that for `CC1CN(C2CN(C(=O)c3ccc(-c4ccccc4)cc3)C2)CCN1C(=O)c1nccs1` (centres unmarked) [Cpd 117] was 4230 nM; that for `O=C(c1ccc2nc(CCc3ccccc3)[nH]c2c1)N1CCN(C2CN(C(=O)c3cscn3)C2)CC1` [Cpd 1002] was 5290 nM. On the same count and under the same terms, in the case of `Cc1cn(-c2ccc(F)cc2)c2ccc(C(=O)N3CC(N4CCN(C(=O)c5ccccc5)CC4)C3)cc12` [Cpd 584] it was 105 nM.

For the origin of these results see patent publication US8362000B2, “Azetidinyl diamides as monoacylglycerol lipase inhibitors” (Janssen Pharmaceutica NV, priority 2009, dated 2013).
